10 molecules from US20240116985A1, “STAPLED PEPTIDES AND METHODS THEREOF” (priority 2020, published 2024) can be followed below.

Series [1] deals with T1, full-length beta-Catenin (Uniprot ID P35222) (Homo sapiens, UniProt P35222).
T1 construct: 10 nM full-length beta-Catenin (Uniprot ID P35222)
T1 sequence (P35222 1-781): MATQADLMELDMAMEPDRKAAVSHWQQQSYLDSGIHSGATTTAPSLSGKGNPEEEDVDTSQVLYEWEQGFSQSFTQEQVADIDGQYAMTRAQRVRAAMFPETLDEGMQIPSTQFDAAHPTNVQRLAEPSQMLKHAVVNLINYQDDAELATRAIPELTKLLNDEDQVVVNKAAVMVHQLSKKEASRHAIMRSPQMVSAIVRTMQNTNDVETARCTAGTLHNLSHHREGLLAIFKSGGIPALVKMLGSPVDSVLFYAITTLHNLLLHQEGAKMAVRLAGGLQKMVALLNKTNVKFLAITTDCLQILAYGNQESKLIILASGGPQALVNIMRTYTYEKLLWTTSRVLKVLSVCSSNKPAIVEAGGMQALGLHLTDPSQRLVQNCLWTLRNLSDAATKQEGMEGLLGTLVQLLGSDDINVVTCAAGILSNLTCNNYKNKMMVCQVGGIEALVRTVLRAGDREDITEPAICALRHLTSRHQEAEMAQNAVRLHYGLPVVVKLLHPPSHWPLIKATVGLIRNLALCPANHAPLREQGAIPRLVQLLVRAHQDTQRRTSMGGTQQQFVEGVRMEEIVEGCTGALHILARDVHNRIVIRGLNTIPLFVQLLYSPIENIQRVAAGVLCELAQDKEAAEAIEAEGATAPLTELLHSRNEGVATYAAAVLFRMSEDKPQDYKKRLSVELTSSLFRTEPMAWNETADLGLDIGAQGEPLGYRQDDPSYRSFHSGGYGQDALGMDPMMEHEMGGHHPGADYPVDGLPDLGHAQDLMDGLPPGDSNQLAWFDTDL
The series is described as follows: Fluorescence polarization IC50 (beta-catenin / 5FAM-TCF4 10-53 competition). The class given is binding. Background: Fluorescence polarisation rises when a labelled molecule tumbles more slowly, as on binding a larger partner.

The nature of another series: Solubility in PBS. Type of series: physicochemical. A digest of the protocol:
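Read-out is the HPLC peak area of the supernatant from ultracentrifuged PBS solution, scaled against a 50 μM peptide DMSO injection; value reported as [(PBS area)/(DMSO area)]*50 uM.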

The nature of another series: CHI Log D procedure. The class given is physicochemical. The following applies: for CHI Log D: pH 7.4.
The mark [2] stands for this setting: fluorescence polarization, read-out: beta-Catenin FP IC50.

Values after ≈ are worked out from the molar mass of the structure shown. Where two headings read alike, the source gives them in different places.

Broadly, the Solubility is the concentration that dissolves in the medium under given conditions. The low end stands for little dissolved substance, the high end for much dissolved substance. In the case of `CC[C@H](C)[C@@H]1NC(=O)[C@H](CC(=O)O)NC(=O)[C@]2(CC=CCCCC3(CCCC=CCCCCCC[C@@](C)(C(=O)N[C@@H](Cc4ccsc4)C(=O)N[C@@H](Cc4csc5ccccc45)C(=O)N[C@@H](CCC(N)=O)C(N)=O)NC(=O)[C@H](CC(N)=O)NC(=O)[C@H](Cc4ccccc4)NC(=O)[C@H](C)NC(=O)[C@H](C)NC(=O)[C@H](CC(=O)O)NC(=O)[C@H](CC(=O)O)NC3=O)NC1=O)CCCN2C(C)=O` (stereo partly drawn) [I-551, Ac-PL3-Asp-Ile-B5-Asp-Asp-Ala-Ala-Phe-Asn-S8-3Thi-BztA-Gln-NH2], the IC50 in series [1] (setting [2]) and in series [1] (read-out: FP EC50) was 45 nM each time. The “Solubility” value in “Solubility in PBS” is 50 µM (≈ 93.1 µg/mL). Also, in the series “CHI Log D procedure”, the “CHI Log D” value is 2.278.
Consider `CC[C@H](C)[C@@H]1NC(=O)[C@H](CC(=O)O)NC(=O)[C@]2(CC=CCCCC3(CCCC=CCCCCCC[C@@](C)(C(=O)N[C@@H](Cc4ccccc4OC)C(=O)N[C@@H](Cc4csc5ccccc45)C(=O)N[C@@H](Cc4c[nH]cn4)C(N)=O)NC(=O)[C@H](CC(N)=O)NC(=O)[C@H](Cc4ccccc4)NC(=O)[C@H](C)NC(=O)[C@H](C)NC(=O)[C@H](CC(=O)O)NC(=O)[C@H](CC(=O)O)NC3=O)NC1=O)CCCN2C(C)=O` (stereo partly drawn) [I-554, Ac-PL3-Asp-Ile-B5-Asp-Asp-Ala-Ala-Phe-Asn-S8-2OMeF-BztA-His-NH2], for which the IC50 in series [1] (setting [2]) and in series [1] (read-out: FP EC50) was 27.5 nM in each case. The “Solubility” value in “Solubility in PBS” came out at 35 µM (≈ 66.3 µg/mL). Besides, the “CHI Log D” value in “CHI Log D procedure” was 2.457.
As for `CC[C@H](C)[C@@H]1NC(=O)[C@H](CC(=O)O)NC(=O)[C@]2(CC=CCCCC3(CCCC=CCCCCCC[C@@](C)(C(=O)N[C@@H](Cc4ccsc4)C(=O)N[C@@H](Cc4csc5ccccc45)C(=O)N[C@@H](Cc4c[nH]cn4)C(N)=O)NC(=O)[C@H](CC(N)=O)NC(=O)[C@H](Cc4ccccc4)NC(=O)[C@H](C)NC(=O)[C@H](C)NC(=O)[C@H](CC(=O)O)NC(=O)[C@H](CC(=O)O)NC3=O)NC1=O)CCCN2C(C)=O` (stereo partly drawn) [I-555, Ac-PL3-Asp-Ile-B5-Asp-Asp-Ala-Ala-Phe-Asn-S8-3Thi-BztA-His-NH2], the IC50 in series [1] (setting [2]) and in series [1] (read-out: FP EC50) was 41 nM in each case. Further, the “Solubility” value in the series “Solubility in PBS” is 41 µM (≈ 76.7 µg/mL). Moreover, the “CHI Log D” value in the series “CHI Log D procedure” is 2.374.
`CC[C@H](C)[C@@H]1NC(=O)[C@H](CC(=O)O)NC(=O)[C@]2(CC=CCCCC3(CCCC=CCCCCCC[C@@](C)(C(=O)N[C@@H](Cc4ccsc4)C(=O)N[C@@H](Cc4csc5ccccc45)C(=O)N[C@@H](Cc4c[nH]cn4)C(N)=O)NC(=O)[C@H](CC(N)=O)NC(=O)[C@H](Cc4ccccc4)NC(=O)[C@H](C)NC(=O)[C@H](C)NC(=O)[C@H](CC(=O)O)NC(=O)[C@H](CC(=O)O)NC3=O)NC1=O)CCCN2C(C)=O` (stereo partly drawn) [I-556, Ac-PL3-Asp-Ile-B5-Asp-Asp-Ala-Ala-Phe-Asn-S8-3Thi-BztA-His-NH2]: the IC50 in series [1] (setting [2]) and in series [1] (read-out: FP EC50) was 20 nM throughout. The “Solubility” value in the series “Solubility in PBS” came out at 39 µM (≈ 72.9 µg/mL). Besides, the “CHI Log D” value in the series “CHI Log D procedure” was 2.435.
As to `CC(=O)N1CCC[C@]12CC=CCCCC1(CCCC=CCCCCCC[C@@](C)(C(=O)N[C@@H](Cc3ccccc3)C(=O)N[C@@H](Cc3csc4ccccc34)C(=O)N[C@@H](Cc3c[nH]cn3)C(N)=O)NC(=O)[C@H](CCC(N)=O)NC(=O)[C@H](Cc3ccccc3)NC(=O)[C@H](C)NC(=O)[C@H](C)NC(=O)[C@H](CC(=O)O)NC(=O)[C@H](CC(=O)O)NC1=O)NC(=O)[C@H](CC(C)C)NC(=O)[C@H](CC(=O)O)NC2=O` (stereo partly drawn) [I-561, Ac-PL3-Asp-Leu-B5-Asp-Asp-Ala-Ala-Phe-Gln-S8-Phe-BztA-His-NH2], the IC50 in series [1] (setting [2]) and in series [1] (read-out: FP EC50) was 34 nM each time. Moreover, the “Solubility” value in the series “Solubility in PBS” is 14 µM (≈ 26.3 µg/mL). Also, the “CHI Log D” value in “CHI Log D procedure” is 2.437.
As to `CC[C@@H]1NC(=O)[C@H](CC(=O)O)NC(=O)[C@]2(CC=CCCCC3(CCCC=CCCCCCC[C@@](C)(C(=O)N[C@@H](Cc4ccccc4)C(=O)N[C@@H](Cc4csc5ccccc45)C(=O)N[C@@H](CCC(N)=O)C(N)=O)NC(=O)[C@H](CCC(N)=O)NC(=O)[C@H](Cc4ccccc4)NC(=O)[C@H](C)NC(=O)[C@H](C)NC(=O)[C@H](CCC(=O)O)NC(=O)[C@H](CC(=O)O)NC3=O)NC1=O)CCCN2C(C)=O` (stereo partly drawn) [I-569, Ac-PL3-Asp-Abu-B5-Asp-Glu-Ala-Ala-Phe-Gln-S8-Phe-BztA-Gln-NH2], the IC50 in series [1] (setting [2]) and in series [1] (read-out: FP EC50) was 42 nM in each case. Besides, in “Solubility in PBS”, the “Solubility” value worked out at 49 µM (≈ 90.9 µg/mL). In “CHI Log D procedure”, the “CHI Log D” value worked out at 2.169.
Turning to `CC[C@@H]1NC(=O)[C@H](CC(=O)O)NC(=O)[C@]2(CC=CCCCC3(CCCC=CCCCCCC[C@@](C)(C(=O)N[C@@H](Cc4ccccc4)C(=O)N[C@@H](Cc4csc5ccccc45)C(=O)N[C@@H](Cc4c[nH]cn4)C(N)=O)NC(=O)[C@H](CC(N)=O)NC(=O)[C@H](Cc4ccccc4)NC(=O)[C@H](C)NC(=O)[C@H](C)NC(=O)[C@H](CC(=O)O)NC(=O)[C@H](CC(=O)O)NC3=O)NC1=O)CCCN2C(C)=O` (stereo partly drawn) [I-575, Ac-PL3-Asp-Abu-B5-Asp-Asp-Ala-Ala-Phe-Asn-S8-Phe-BztA-His-NH2], the IC50 in series [1] (setting [2]) and in series [1] (read-out: FP EC50) was 21 nM throughout. The “Solubility” value in the series “Solubility in PBS” was determined as 46 µM (≈ 84.5 µg/mL). Moreover, in the series “CHI Log D procedure”, the “CHI Log D” value is 2.21.
Consider `CC[C@H](C)[C@@H]1NC(=O)[C@H](CC(=O)O)NC(=O)[C@]2(CC=CCCCC3(CCCC=CCCCCCC[C@@](C)(C(=O)N[C@@H](Cc4ccccc4)C(=O)N[C@@H](Cc4csc5ccccc45)C(=O)N[C@@H](Cc4c[nH]cn4)C(N)=O)NC(=O)[C@H](CCC(N)=O)NC(=O)[C@H](Cc4ccccc4)NC(=O)[C@H](C)NC(=O)[C@H](C)NC(=O)[C@H](CC(=O)O)NC(=O)[C@H](CC(=O)O)NC3=O)NC1=O)CCCN2C(C)=O` (stereo partly drawn) [I-580, Ac-PL3-Asp-Ile-B5-Asp-Asp-Ala-Ala-Phe-Gln-S8-Phe-BztA-His-NH2], for which the IC50 in series [1] (setting [2]) and in series [1] (read-out: FP EC50) was 114 nM in each case. The “Solubility” value in the series “Solubility in PBS” is 24 µM (≈ 45.1 µg/mL). The “CHI Log D” value in “CHI Log D procedure” was found to be 2.436.
On to `CC(=O)N1CCC[C@]12CC=CCCCC1(CCCC=CCCCCCC[C@@](C)(C(=O)N[C@@H](Cc3ccccc3)C(=O)N[C@@H](Cc3csc4ccccc34)C(=O)N[C@@H](Cc3c[nH]cn3)C(N)=O)NC(=O)[C@H](CC(N)=O)NC(=O)[C@H](Cc3ccccc3)NC(=O)[C@H](C)NC(=O)[C@H](C)NC(=O)[C@H](CC(=O)O)NC(=O)[C@H](CC(=O)O)NC1=O)NC(=O)[C@H](CCC(C)C)NC(=O)[C@H](CC(=O)O)NC2=O` (stereo partly drawn) [I-584, Ac-PL3-Asp-hLeu-B5-Asp-Asp-Ala-Ala-Phe-Asn-S8-Phe-BztA-His-NH2], for which the IC50 in series [1] (setting [2]) and in series [1] (read-out: FP EC50) was 33 nM throughout. The “Solubility” value in “Solubility in PBS” is 21 µM (≈ 39.4 µg/mL). Also, in the series “CHI Log D procedure”, the “CHI Log D” value worked out at 2.635.
Broadly, the chromatographic logD is lipophilicity estimated from chromatographic retention. The low end stands for lower lipophilicity, the high end for higher lipophilicity. Take `CC[C@H](C)[C@@H]1NC(=O)[C@H](CC(=O)O)NC(=O)[C@]2(CC=CCCCC3(CCCC=CCCCCCC[C@@](C)(C(=O)N[C@@H](Cc4ccccc4)C(=O)N[C@@H](Cc4csc5ccccc45)C(=O)N[C@@H](CCC(N)=O)C(N)=O)NC(=O)[C@H](CCC(N)=O)NC(=O)[C@H](Cc4ccccc4)NC(=O)[C@H](C)NC(=O)[C@H](C)NC(=O)[C@H](CCC(=O)O)NC(=O)[C@H](CC(=O)O)NC3=O)NC1=O)CCCN2C(=O)c1cccnc1` (stereo partly drawn) [I-598, Nic-PL3-Asp-Ile-B5-Asp-Glu-Ala-Ala-Phe-Gln-S8-Phe-BztA-Gln-NH2]: in series [1] (setting [2]), the IC50 is 845 nM. The Solubility in the series “Solubility in PBS” (Solubility (uM)) was determined as 49 µM (≈ 95.4 µg/mL). This molecule also registered a chromatographic logD in the series “CHI Log D procedure” (pH 7.4, CHI Log D) of 2.24.
